Assay [1] addresses Neuronal acetylcholine receptor subunit alpha-3 (Rattus norvegicus, UniProt P04757).
The target of assay [2] is Nicotinic acetylcholine receptor (Rattus leucopus, UniProt Q62594).

Bounds are passed on as bounds.

Sequence of Neuronal acetylcholine receptor subunit alpha-3 (P04757 whole entry): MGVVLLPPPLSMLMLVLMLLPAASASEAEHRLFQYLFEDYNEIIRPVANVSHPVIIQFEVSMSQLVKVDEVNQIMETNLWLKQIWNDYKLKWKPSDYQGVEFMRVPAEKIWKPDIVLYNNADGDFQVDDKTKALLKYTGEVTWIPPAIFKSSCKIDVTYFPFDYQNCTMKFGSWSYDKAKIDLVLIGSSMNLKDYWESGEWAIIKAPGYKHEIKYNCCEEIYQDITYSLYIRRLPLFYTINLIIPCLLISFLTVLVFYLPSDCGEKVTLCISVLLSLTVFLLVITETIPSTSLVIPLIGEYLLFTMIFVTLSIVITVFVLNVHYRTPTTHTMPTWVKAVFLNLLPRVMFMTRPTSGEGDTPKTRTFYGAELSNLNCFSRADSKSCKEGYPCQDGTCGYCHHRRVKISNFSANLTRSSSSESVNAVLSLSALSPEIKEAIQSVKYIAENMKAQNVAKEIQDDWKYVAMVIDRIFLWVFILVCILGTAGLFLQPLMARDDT
Sequence of Nicotinic acetylcholine receptor (Q62594 whole entry): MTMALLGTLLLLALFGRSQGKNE

In general, Ki refers to a measure of affinity in units of concentration, obtained from inhibition or displacement. For `CO[C@@H]1CC=C2CCN3CCC4=C(CC(=O)OC4)[C@@]23C1`, in assay [1], the Ki is more than 10 µM.

With `O=c1cccc2n1C[C@H]1CNC[C@H]2C1` [(1S,9R)-7,11-diazatricyclo[7.3.1.0~2,7~]trideca-2,4-dien-6-one], the Ki in assay [1] is 0.195 µM.

As to `C[N+](C)(C)CCOC(N)=O` [(2-Hydroxyethyl)trimethyl ammonium chloride carbamate], in assay [1], the Ki came out at 3.84 µM.

Consider `COc1cc2c3cc1Oc1cc(ccc1O)C[C@H]1c4c(cc(OC)c(O)c4Oc4ccc(cc4)C[C@@H]3N(C)CC2)CC[N+]1(C)C` [CAS_57-94-3], for which the Ki was more than 10 µM in assay [1] and 2.24 µM in assay [2].

For `C[N+](C)(C)CCCCCC[N+](C)(C)C` [Hexamethoniumdibromide], the inhibition constant (Ki) in assay [1] and in assay [2] was more than 10 µM each time.

The record behind these values is BindingDB's records for doi:10.1124/mol.54.2.322 (Georgetown University, 1998).
